Results on 29 compounds are retold here after US20230045421A1 (priority 2018, published 2023).

Like-named read-outs stand apart in the source and are kept apart here.

In this test the test system is HBV rcDNA. In words: HepDE19 assay with bDNA quantitation of HBV rcDNA. The test is classed as cell-based, hepatitis B virus. Summed up:
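HepDE19 cells (HepG2-derived, Tet-regulated HBV replication) were deprived of tetracycline and then exposed to compounds for 7 days at 37 °C in 0.5% DMSO, 8-point titration from 25 μM. rcDNA was quantified by bDNA and EC50/EC90 came from 4-parameter fits. CC50 was measured by CellTiter-Glo ATP content on replicate plates after 4 days.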

[1] abbreviates: Hepatitis B virus, HepDE19, HepDE19 assay, inhibition of formation of rcDNA, read-out: DE-19bDNA EC50.
[2] abbreviates: HepDE19 assay, inhibition of formation of relaxed circular DNA (rcDNA), bDNA quantitation, read-out: DE-19bDNA EC50.
The mark [3] stands for this setting: HepDE19 assay, inhibition of formation of rcDNA, read-out: DE-19bDNA EC50.
Where [4] appears, read: read-out: DE-19bDNA EC50, HepDE19 assay, inhibition of formation of relaxed circular DNA (rcDNA), bDNA quantitation.

`COc1ncc(CN(CC2CC2)C(=O)Nc2ccc(F)c(Cl)c2)c2ccccc12` [Compound 31, 3-(3-Chloro-4-fluorophenyl)-1-(cyclopropylmethyl)-1-((1-methoxyisoquinolin-4-yl)methyl)urea]: the half-maximal effective concentration (EC50) (as a rule, the midpoint of the concentration-response curve) under setting [1] turned out to be 0.87 µM. With `CC(c1c[nH]c(=O)c2c(F)c(F)ccc12)N(C)C(=O)Nc1cccc(F)c1F` (single isomer, unassigned) [Compound 458, 1-(1-(7,8-Difluoro-1-oxo-1,2-dihydroisoquinolin-4-yl)ethyl)-3-(2,3-difluorophenyl)-1-methylurea], under setting [2], the 50% effective concentration (EC50) stood at 14 µM. Turning to `CC(=O)NCCN(C(=O)Nc1ccc(F)c(Cl)c1)C(C)c1c[nH]c(=O)c2ccccc12` (single isomer, unassigned) [Compound 138, N-(2-(3-(3-Chloro-4-fluorophenyl)-1-(1-(1-oxo-1,2-dihydroisoquinolin-4-yl)ethyl)ureido)ethyl)acetamide], the concentration giving a half-maximal response (EC50) under setting [3] is 19 µM. Consider `CCN(C(=O)Nc1ccc(F)c(Cl)c1)C(C)c1cnc(OC)c2ccccc12` (single isomer, unassigned) [Compound 22, 3-(3-Chloro-4-fluorophenyl)-1-ethyl-1-(1-(1-methoxyisoquinolin-4-yl)ethyl)urea], for which, under setting [3], the 50% effective concentration (EC50) was 9.6 µM. In the case of `CC(c1c[nH]c(=O)c2c(F)c(F)ccc12)N(C)C(=O)NCc1cc(F)c(F)c(F)c1` (single isomer, unassigned) [Compound 494, 1-(1-(7,8-Difluoro-1-oxo-1,2-dihydroisoquinolin-4-yl)ethyl)-1-methyl-3-(3,4,5-trifluorobenzyl)urea], under setting [2], the concentration giving a half-maximal response (EC50) stood at 0.89 µM. As for `CC(c1c[nH]c(=O)c2c(F)c(F)ccc12)N(C)C(=O)Nc1ccccc1` (single isomer, unassigned) [Compound 436, 1-(1-(7,8-difluoro-1-oxo-1,2-dihydroisoquinolin-4-yl)ethyl)-1-methyl-3-phenylurea], under setting [4], the concentration for a half-maximal effect (EC50) came out at 19.2 µM. `Cc1cc(NC(=O)N(C)[C@H](C)c2c[nH]c(=O)c3ccccc23)ccc1F` [Compound 32, (R)-3-(4-Fluoro-3-methylphenyl)-1-methyl-1-(1-(1-oxo-1,2-dihydroisoquinolin-4-yl)ethyl)urea]: under setting [1], the EC50 is 0.03 µM. Turning to `CC(c1c[nH]c(=O)c2cc(F)c(F)cc12)N(C)C(=O)Nc1ccc2cc[nH]c2c1` (single isomer, unassigned) [Compound 485, 1-(1-(6,7-Difluoro-1-oxo-1,2-dihydroisoquinolin-4-yl)ethyl)-3-(1H-indol-6-yl)-1-methylurea], under setting [2], the EC50 came to 9.9 µM. In the case of `CC(c1c[nH]c(=O)c2ccccc12)N(C[C@@H](C)O)C(=O)Nc1ccc(F)c(Cl)c1` (single isomer, unassigned) [Compound 216], the EC50 under setting [3] turned out to be 0.09 µM. Turning to `CN(C(=O)Nc1ccc(F)c(Cl)c1)C(CO)c1c[nH]c(=O)c2ccccc12` (single isomer, unassigned) [Compound 380, 3-(3-Chloro-4-fluorophenyl)-1-(2-hydroxy-1-(1-oxo-1,2-dihydroisoquinolin-4-yl)ethyl)-1-methylurea], under setting [4], the EC50 was determined as 17 µM. Consider `CC(c1c[nH]c(=O)c2ncccc12)N(C)C(=O)Nc1ccc(F)c(Cl)c1` (centres unmarked) [Compound 153, 3-(3-chloro-4-fluorophenyl)-1-methyl-1-(1-(8-oxo-7,8-dihydro-1,7-naphthyridin-5-yl)ethyl)urea], for which the concentration giving a half-maximal response (EC50) under setting [1] is 0.87 µM.

For the compound `CCN(C(=O)Nc1ccc(F)cc1)C(C)c1c[nH]c(=O)c2c(F)c(F)ccc12` (single isomer, unassigned) [Compound 465, 1-(1-(7,8-Difluoro-1-oxo-1,2-dihydroisoquinolin-4-yl)ethyl)-1-ethyl-3-(4-fluorophenyl)urea], the concentration for a half-maximal effect (EC50) under setting [2] worked out at 0.019 µM. For the compound `CC(C)CN(C(=O)Nc1ccc(F)c(Cl)c1)C(C)c1c[nH]c(=O)c2cnccc12` (single isomer, unassigned) [Compound 254, 3-(3-Chloro-4-fluorophenyl)-1-isobutyl-1-(1-(1-oxo-1,2-dihydro-2,7-naphthyridin-4-yl)ethyl)urea], under setting [3], the concentration for a half-maximal effect (EC50) amounted to 0.016 µM. With `COc1ncc(C(C)N(C)C(=O)Nc2ccc(F)c(Cl)c2)c2nccnc12` (racemic) [Compound 137, 3-(3-chloro-4-fluorophenyl)-1-(1-(5-methoxypyrido[3,4-b]pyrazin-8-yl)ethyl)-1-methylurea], the EC50 under setting [1] was determined as 6.1 µM. For the compound `CC(c1cnc(OCc2nc[nH]n2)c2ccccc12)N(CCCO)C(=O)Nc1ccc(F)c(Cl)c1` (single isomer, unassigned) [Compound 259, 1-(1-(1-((1H-1,2,4-Triazol-3-yl)methoxy)isoquinolin-4-yl)ethyl)-3-(3-chloro-4-fluorophenyl)-1-(3-hydroxypropyl)urea], under setting [3], the EC50 turned out to be 2.1 µM. On to `CC(c1c[nH]c(=O)c2c(F)cc(F)cc12)N(CCS(N)(=O)=O)C(=O)Nc1ccc(F)c(Cl)c1` (single isomer, unassigned) [Compound 390, 2-(3-(3-Chloro-4-fluorophenyl)-1-(1-(6,8-difluoro-1-oxo-1,2-dihydroisoquinolin-4-yl)ethyl)ureido) ethane-1-sulfonamide], for which the half-maximal effective concentration (EC50) under setting [2] was found to be 0.017 µM.

For the compound `CC(c1cnc(OCc2ncn(C)n2)c2cc(F)c(F)cc12)N(CCCO)C(=O)Nc1ccc(F)c(Cl)c1` (single isomer, unassigned) [Compound 349, 3-(3-chloro-4-fluorophenyl)-1-(1-(6,7-difluoro-1-((1-methyl-1H-1,2,4-triazol-3-yl)methoxy)isoquinolin-4-yl)ethyl)-1-(3-hydroxypropyl)urea], under setting [2], the EC50 was 0.005 µM. With `CNS(=O)(=O)CCCN(C(=O)Nc1ccc(F)c(Cl)c1)C(C)c1c[nH]c(=O)c2ccccc12` (single isomer, unassigned) [Compound 220, 3-(3-(3-Chloro-4-fluorophenyl)-1-(1-(1-oxo-1,2-dihydroisoquinolin-4-yl)ethyl)ureido)-N-methylpropane-1-sulfonamide], the EC50 under setting [1] worked out at 0.14 µM. As to `CC(c1cn(C)c(=O)c2ccccc12)N(C)C(=O)Nc1ccc(F)c(Cl)c1` (single isomer, unassigned) [Compound 182, 3-(3-Chloro-4-fluorophenyl)-1-methyl-1-(1-(2-methyl-1-oxo-1,2-dihydroisoquinolin-4-yl)ethyl)urea], the 50% effective concentration (EC50) under setting [3] was 0.03 µM. Consider `CC(c1c[nH]c(=O)c2cc(F)c(F)cc12)N(C)C(=O)NCc1cc(F)c(F)c(F)c1` (single isomer, unassigned) [Compound 481, 1-(1-(6,7-Difluoro-1-oxo-1,2-dihydroisoquinolin-4-yl)ethyl)-1-methyl-3-(3,4,5-trifluorobenzyl)urea], for which the EC50 under setting [2] worked out at 0.53 µM. Turning to `CC(c1c[nH]c(=O)c2c(F)cccc12)N(CCCO)C(=O)Nc1ccc(F)c(Cl)c1` (single isomer, unassigned) [Compound 367, 3-(3-Chloro-4-fluorophenyl)-1-(1-(8-fluoro-1-oxo-1,2-dihydroisoquinolin-4-yl)ethyl)-1-(3-hydroxypropyl)urea], under setting [2], the EC50 is 0.008 µM.

On to `CC(C)CN(C(=O)Nc1ccc(F)c(Cl)c1)C(C)c1cnc(-n2cncn2)c2ccccc12` (racemic) [Compound 300, 1-(1-(1-(1H-1,2,4-triazol-1-yl)isoquinolin-4-yl)ethyl)-3-(3-chloro-4-fluorophenyl)-1-isobutylurea], for which, for the setting “Hepatitis B virus, HepDE19, HepDE19 assay, inhibition of formation of relaxed circular DNA (rcDNA), bDNA quantitation, read-out: DE-19bDNA EC50”, the concentration for a half-maximal effect (EC50) is 0.02 µM. `CC(C)CN(C(=O)Nc1ccc(F)c(Cl)c1)C(C)c1cn(C)c(=O)c2cc(F)c(F)cc12` (single isomer, unassigned) [Compound 343, 3-(3-Chloro-4-fluorophenyl)-1-(1-(6,7-difluoro-2-methyl-1-oxo-1,2-dihydroisoquinolin-4-yl)ethyl)-1-isobutylurea]: the EC50 under setting [2] stood at 0.006 µM. As for `CC(c1c[nH]c(=O)c2cc(F)c(F)cc12)N(C)C(=O)Nc1cc(Cl)c(F)c(Cl)c1` (single isomer, unassigned) [Compound 439, 3-(3,5-Dichloro-4-fluorophenyl)-1-(1-(6,7-difluoro-1-oxo-1,2-dihydroisoquinolin-4-yl)ethyl)-1-methylurea], the EC50 under setting [2] is 0.12 µM. With `CC(c1c[nH]c(=O)c2cc(F)c(F)cc12)N(C)C(=O)N[C@H](C)c1ccccc1` (single isomer, unassigned) [Compound 479], the EC50 (Hepatitis B virus, HepDE19, read-out: DE-19bDNA EC50 (μM), HepDE19 assay, inhibition of formation of relaxed circular DNA (rcDNA), bDNA quantitation) was 9.4 µM. For the compound `CC(c1c[nH]c(=O)c2ccccc12)N(Cc1ccccn1)C(=O)Nc1ccc(F)c(Cl)c1` (single isomer, unassigned) [Compound 305, 3-(3-Chloro-4-fluorophenyl)-1-(1-(1-oxo-1,2-dihydroisoquinolin-4-yl)ethyl)-1-(pyridin-2-ylmethyl) urea], the EC50 under setting [2] stood at 0.59 µM. Same read-out and setting: then `CC(c1c[nH]c(=O)c2c(F)c(F)ccc12)N(C)C(=O)Nc1ccc(F)cc1` (single isomer, unassigned) [Compound 432, 1-(1-(7,8-Difluoro-1-oxo-1,2-dihydroisoquinolin-4-yl)ethyl)-3-(4-fluorophenyl)-1-methylurea], with 11.2 µM; and `CC(c1c[nH]c(=O)c2c(F)c(F)ccc12)N(C)C(=O)Nc1ccc(F)c(C#N)c1` (single isomer, unassigned) [Compound 470, 3-(3-Cyano-4-fluorophenyl)-1-(1-(7,8-difluoro-1-oxo-1,2-dihydroisoquinolin-4-yl)ethyl)-1-methylurea], with 2 µM.

For `CC(c1cnc(NCCN)c2ccccc12)N(C)C(=O)Nc1ccc(F)c(Cl)c1` (racemic) [Compound 244, 1-(1-(1-((2-aminoethyl)amino)isoquinolin-4-yl)ethyl)-3-(3-chloro-4-fluorophenyl)-1-methylurea], the EC50 under setting [1] is 2.7 µM.
